Measured values reported in article PMC5213647, “Honokiol as a specific collagen receptor glycoprotein VI antagonist on human platelets: Functional ex vivo and in vivo studies” (Scientific Reports, 2017).

Molecular target: T1, collagen receptor glycoprotein VI (GP VI) (Homo sapiens, UniProt Q9HCN6)
T1 construct: gene GP6; native full-length receptor, captured from total human platelet lysate by immobilised anti-GP VI mAb on SPR chip; described as 60-65 kDa type I transmembrane glycoprotein
T1 sequence (Q9HCN6 21-339): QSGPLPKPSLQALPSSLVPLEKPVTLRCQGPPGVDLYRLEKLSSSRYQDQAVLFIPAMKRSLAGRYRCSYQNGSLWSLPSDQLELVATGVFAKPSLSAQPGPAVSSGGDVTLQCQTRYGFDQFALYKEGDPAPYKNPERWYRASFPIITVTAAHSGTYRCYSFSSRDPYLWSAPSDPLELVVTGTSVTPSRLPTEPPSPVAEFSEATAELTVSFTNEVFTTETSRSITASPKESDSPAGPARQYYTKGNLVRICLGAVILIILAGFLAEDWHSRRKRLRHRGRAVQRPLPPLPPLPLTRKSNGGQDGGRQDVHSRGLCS
Assay: SPR (ProteOn XPR36), GP VI captured by immobilised anti-GP VI mAb, kinetic […] Langmuir fit
Assay type: binding
Conditions: PBS with 0.005% Tween 20, pH 7.4, 25 °C; native GP VI captured from platelet lysate; analyte only 10 and 100 μM

C=CCc1ccc(O)c(-c2ccc(O)c(CC=C)c2)c1 [Honokiol]
Kd: 289 µM
